The structures appear in SMILES notation. Where two headings read alike, the source gives them in different places.

As a reminder, the chromatographic logD is a lipophilicity value derived from retention on a column. A higher chromatographic logD goes with a more lipophilic compound.

For data set [1] the following is noted: Table S1, coded 1/0; ref DrugBank [7]; cited from earlier work.
The nature of data set [2]: NP TLC on non-impregnated control plates. The format is physicochemical. The settings on record: for CNP (Rf, control NP plate): Table S3, non-impregnated NP plate, acetonitrile/acetate buffer pH 7.4/methanol 60:20:20.
Description: (§1) For TLC chromatography, glass plates 20 × 20 cm from Merck, covered with silica gel with the addition of a fluorescent indicator, were used. Normal phase (NP) plates were used with standard Merck TLC Silica gel 60 F254 plates, while in reverse phase (RP) silanized plates RP-2: Merck TLC Silica gel 60 RP-2 F254 were used.
(§2) Normal and reversed phase thin layer chromatography (NP TLC and RP TLC respectively) was performed using silica-gel-coated glass plates. Half of them were covered with 2 mg/mL bovine serum albumin solution and half remained pure.
(§3) The mobility of the compounds was also determined on the plates with no protein as a modifier. […] The acetate buffer (20 mM) was prepared by dissolving 1.54 g of ammonium acetate in 1 L of distilled water. The pH was then adjusted with a concentrated ammonia solution using a pH meter. The plates were developed in standard, vertical chromatographic chambers, each time using 100 mL of the mobile phase, after the chamber was previously saturated with solvent vapors for approximately 1 h.
(§4) The unfolded-protein-impregnated plates and the control plates were scanned with a Desaga CD 60 densitometer. The values of the delay factor (Rf) were collected, i.e., the ratio of the distance traveled by the substance to be analyzed to the distance traveled through the front of the mobile phase. […] The experiment was repeated (for both BSA-coated and control plates) and the Rf values pooled are the mean of both series of experiments.
The subject of the next data set is plasma protein. The settings on record: ref DrugBank [7], cited from earlier work.
For data set [3], the target named is T1, bovine serum albumin (BSA) (Bos taurus, UniProt P02769).
T1 construct: purchased Sigma Aldrich
T1 sequence (P02769 25-607): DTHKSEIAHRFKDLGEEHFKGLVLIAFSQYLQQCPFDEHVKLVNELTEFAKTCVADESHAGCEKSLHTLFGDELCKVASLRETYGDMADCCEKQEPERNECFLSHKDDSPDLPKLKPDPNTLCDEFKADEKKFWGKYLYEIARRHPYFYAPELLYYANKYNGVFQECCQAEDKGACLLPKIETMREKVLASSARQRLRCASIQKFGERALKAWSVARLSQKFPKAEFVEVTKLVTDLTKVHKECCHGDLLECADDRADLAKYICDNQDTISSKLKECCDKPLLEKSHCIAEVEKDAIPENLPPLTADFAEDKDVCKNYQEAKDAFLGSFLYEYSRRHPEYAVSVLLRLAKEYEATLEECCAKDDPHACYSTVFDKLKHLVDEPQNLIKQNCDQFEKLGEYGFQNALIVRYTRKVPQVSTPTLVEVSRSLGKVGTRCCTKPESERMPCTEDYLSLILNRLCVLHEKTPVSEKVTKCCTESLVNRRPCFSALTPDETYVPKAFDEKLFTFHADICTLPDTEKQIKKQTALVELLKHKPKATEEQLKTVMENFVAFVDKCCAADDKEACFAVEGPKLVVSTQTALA
The data set is described as follows: NP TLC on plates impregnated with bovine serum albumin. The settings on record: for NP (Rf, BSA-impregnated NP plate): Table S3, NP plate impregnated with 2 mg/mL BSA, pH 7.4 mobile phase. The class given is binding.
Excerpt: (§5) Chromatographic descriptors were obtained in experiments, thin layer chromatography in normal (NP TLC) and reversed mode (RP TLC). The stationary phase was modified with bovine serum albumin (BSA). TLC was the source of retention factor (Rf) values, denoted in statistical models as NP and RP.
as §1
(§6) The stationary phase of the plates, both NP and RP, was modified with an aqueous solution of bovine serum albumin purchased from Sigma Aldrich (bovine serum albumin, lyophilized powder).
(§7) The impregnation of the plates was carried out with a 2 mg/mL solution applied to the surface using a Desaga SG 1 hand sprayer; the plates were then air dried. […] Normal and reversed phase thin layer chromatography (NP TLC and RP TLC respectively) was performed using silica-gel-coated glass plates. Half of them were covered with 2 mg/mL bovine serum albumin solution and half remained pure.
as §3, §4

Data set [4] has as its target T2, human serum albumin (HSA) (Homo sapiens, UniProt P02768).
Description: (§8) High performance liquid chromatography was performed using immobilized human serum albumin column (HPLCHSA) and immobilized artificial membrane (HPLCIAM). HPLC was the source of the log k values (logarithm of retention factor), log kHSA and log kIAM.
(§9) High performance liquid chromatography was performed using a chromatography column with immobilized human serum albumin. The assay was performed on a Perkin Elmer Series 200 instrument connected to a UV-VIS spectrometer as detector. The analytical wavelength was the same for all compounds at 210 nm. […] The acetate buffer was prepared by dissolving 0.77 g of ammonium acetate in 1 L of distilled water. The pH was then adjusted with a concentrated ammonia solution using a pH meter.
(§10) The phase flow through the system was set to 0.9 mL/min as recommended by the column manufacturer. The solutions were delivered to the column using an autosampler syringe, the injection size was 10 µL. Since the column could not be thermostated, the room was kept at a constant temperature of 25 degrees Celsius.
(§11) Chromatographic data (retention coefficient, k, and derivative, log k) were obtained with TotalChrom software connected to an HPLC instrument. […] The experiment was then repeated and the collected retention rates were the mean values of both series.
A short description of data set [5]: RP TLC on non-impregnated control plates. The format is physicochemical. The settings on record: Table S4, non-impregnated RP plate; acetonitrile/acetate buffer pH 7.4/methanol 60:20:20.
Description: as §1, §2, §3, §4
Data set [6] can be described thus: HPLC on immobilized artificial membrane column (HPLCIAM). The format is physicochemical. The settings on record: for log k IAM: Table S5, IAM column, pH 7.4; for k IAM: Table S5, retention factor, IAM column, phosphate buffer pH 7.4/acetonitrile 80:20; for kIAM / log kIAM: Table S9, external group.
Data set [7] deals with T1, bovine serum albumin (BSA). The data set is described as follows: RP TLC on plates impregnated with bovine serum albumin. The format is binding. The settings on record: Table S4, RP plate impregnated with 2 mg/mL BSA; pH 7.4 mobile phase.
Excerpt: as §5, §1, §6, §7, §3, §4
Data set [8] deals with T2, human serum albumin (HSA). The data set is described as follows: in vitro. The settings on record: immobilized hsa column, pH 7.4.
Description: as §8, §9, §10, §11
[9] abbreviates: Table S1, plasma protein binding given as fraction.
Setting [10] is: Table S5, retention factor, HSA column, pH 7.4, 25 degrees Celsius.
[11] abbreviates: Table S6, external group (n = 38), given as fraction.
Where [12] appears, read: human, immobilized hsa column, pH 7.4.

T2 sequence (P02768 25-609): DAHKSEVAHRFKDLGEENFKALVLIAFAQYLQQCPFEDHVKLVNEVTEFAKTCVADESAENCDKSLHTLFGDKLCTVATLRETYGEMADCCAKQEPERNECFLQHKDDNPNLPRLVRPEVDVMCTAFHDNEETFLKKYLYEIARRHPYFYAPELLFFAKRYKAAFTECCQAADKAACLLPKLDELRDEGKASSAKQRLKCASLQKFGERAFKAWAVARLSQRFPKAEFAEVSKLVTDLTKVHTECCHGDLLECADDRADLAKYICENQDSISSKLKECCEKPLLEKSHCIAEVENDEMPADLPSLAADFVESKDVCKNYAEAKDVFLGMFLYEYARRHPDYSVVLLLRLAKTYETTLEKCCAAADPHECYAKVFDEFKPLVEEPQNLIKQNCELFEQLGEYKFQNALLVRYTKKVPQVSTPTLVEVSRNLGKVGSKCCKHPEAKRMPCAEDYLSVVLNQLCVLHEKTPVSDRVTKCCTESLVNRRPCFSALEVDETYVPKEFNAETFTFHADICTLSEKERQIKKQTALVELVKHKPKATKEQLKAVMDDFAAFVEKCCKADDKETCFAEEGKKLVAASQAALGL

`CC(C)NCC(O)COc1ccc(COCCOC(C)C)cc1` (stereo not drawn) [bisoprolol]: in data set [1], the “CNS+/-” value is given as 0. In data set [2], the “CNP (Rf, control NP plate)” value was determined as 0.67. Further, the PB with plasma protein (setting [9]) is listed as 0.3. Also, the “NP (Rf, BSA-impregnated NP plate)” value in data set [3] turned out to be 0.66. Moreover, the “k HSA” value in data set [4] (setting [10]) turned out to be 1.07. The “CRP (Rf, control RP plate)” value in [5] was determined as 0.57. Also, in data set [6], the “log k IAM” value amounted to 0.83 and the “k IAM” value was 6.74. In addition, the “RP (Rf, BSA-impregnated RP plate)” value in [7] amounted to 0.56.
For the compound `CN1CCN(C2=Nc3cc(Cl)ccc3Nc3ccccc32)CC1` [clozapine], in [2], the “CNP (Rf, control NP plate)” value was found to be 0.45. Moreover, the “NP (Rf, BSA-impregnated NP plate)” value in data set [3] stood at 0.46. Moreover, the “k HSA” value in data set [4] (setting [10]) was found to be 6.84. In [8], this compound yielded a chromatographic logD of 0.84. In addition, in [6], the “log k IAM” value stood at 1.71 and the “k IAM” value came to 50.94.
Regarding `CNCC[C@H](Oc1cccc2ccccc12)c1cccs1` [duloxetine], the PB with plasma protein (setting [11]) is on record as 0.90. In [4], the kHSA came out at 8.16. In addition, in data set [8], the chromatographic logD worked out at 0.91. Further, in data set [6], the kIAM is given as 2.84 and the “log kIAM” value is given as 0.45.
As to `NCC1(CC(=O)O)CCCCC1` [gabapentin], the PB with plasma protein (setting [11]) is 0.03. This compound returned a kHSA in [4] of 0.15. Besides, the chromatographic logD in data set [8] is -0.84. Moreover, in data set [6], the kIAM was 1.70 and the “log kIAM” value amounted to 0.23.
On to `CC(=O)OCC(=O)[C@@]1(O)CC[C@H]2[C@@H]3CCC4=CC(=O)CC[C@]4(C)[C@H]3[C@@H](O)C[C@@]21C` [hydrocortisone acetate], for which the “CNP (Rf, control NP plate)” value in data set [2] is listed as 0.96. In the data set on plasma protein (setting [9]), the PB is given as 0.95. In addition, in data set [3], the “NP (Rf, BSA-impregnated NP plate)” value stood at 0.96. In addition, the “k HSA” value in [4] (setting [10]) turned out to be 0.66. The compound further had a chromatographic logD in data set [8] of -0.18. Besides, in data set [6], the “log k IAM” value is 0.45 and the “k IAM” value was 2.82.
`Cc1cc2c(s1)Nc1ccccc1N=C2N1CCN(C)CC1` [olanzapine]: the “k HSA” value in data set [4] (pH 7.4) is listed as 4.83. Besides, in data set [8], the chromatographic logD worked out at 0.68. In data set [6], the “log k IAM” value is on record as 1.31 and the “k IAM” value is given as 20.31.
As for `COc1ccnc(C[S+]([O-])c2nc3ccc(OC(F)F)cc3[nH]2)c1OC` (stereo not drawn) [pantoprazole], the “CNS+/-” value in data set [1] is listed as 0. Moreover, the “CNP (Rf, control NP plate)” value in data set [2] came out at 0.93. Also, the PB with plasma protein (setting [9]) is recorded as 0.98. In addition, the “NP (Rf, BSA-impregnated NP plate)” value in data set [3] was 0.92. The “k HSA” value in [4] (setting [10]) was 2.09. Further, in [4] (setting [12]), the “log k HSA” value is 0.32. In addition, the “CRP (Rf, control RP plate)” value in data set [5] turned out to be 0.85. Also, in [6], the “log k IAM” value was determined as 0.34 and the “k IAM” value stood at 2.19. The “RP (Rf, BSA-impregnated RP plate)” value in [7] came to 0.83.
In the case of `CCC[C@H](N[C@@H](C)C(=O)N1[C@H](C(=O)O)C[C@@H]2CCCC[C@@H]21)C(=O)OCC` [perindopril], in data set [1], the “CNS+/-” value is 0. Also, in [2], the “CNP (Rf, control NP plate)” value is given as 0.47. For the same compound, the PB in the data set on plasma protein (setting [9]) is reported as 0.15. In addition, the “NP (Rf, BSA-impregnated NP plate)” value in data set [3] is reported as 0.46. For the same compound, the “k HSA” value in [4] (setting [10]) amounted to 0.49. The “log k HSA” value in [4] (setting [12]) is -0.31. The “CRP (Rf, control RP plate)” value in data set [5] worked out at 0.57. Also, in [6], the “log k IAM” value was -0.76 and the “k IAM” value amounted to 0.18. Further, the “RP (Rf, BSA-impregnated RP plate)” value in data set [7] was 0.58.
Take `CC(C)NCC(O)COc1cccc2[nH]ccc12` (stereo not drawn) [pindolol]: the “CNP (Rf, control NP plate)” value in [2] worked out at 0.53. In addition, the PB with plasma protein (setting [9]) was 0.4. Moreover, the “NP (Rf, BSA-impregnated NP plate)” value in [3] was 0.52. Besides, the “k HSA” value in data set [4] (setting [10]) was 1.65. In addition, the chromatographic logD in data set [8] amounted to 0.22. Further, in [6], the “log k IAM” value was found to be 0.78 and the “k IAM” value was found to be 6.09.
In the case of `CC(C)C[C@H](CN)CC(=O)O` [pregabalin], the PB with plasma protein (setting [11]) was 0.00. The compound further returned a kHSA in data set [4] of 0.14. This compound registered a chromatographic logD in data set [8] of -0.87. Moreover, in [6], the kIAM was determined as 1.65 and the “log kIAM” value turned out to be 0.22.
Take `CC(CN1c2ccccc2Sc2ccccc21)N(C)C` (stereo not drawn) [promethazine]: the “CNS+/-” value in [1] is 1. Further, the “CNP (Rf, control NP plate)” value in data set [2] is given as 0.43. In addition, the PB with plasma protein (setting [9]) is listed as 0.93. In data set [3], the “NP (Rf, BSA-impregnated NP plate)” value was determined as 0.42. In addition, the “log k HSA” value in data set [4] (Table S5, HSA, pH 7.4) was found to be 0.73. Moreover, in data set [4] (setting [10]), the “k HSA” value is 5.35. For the same compound, in data set [5], the “CRP (Rf, control RP plate)” value came to 0.49. In addition, in data set [6], the “log k IAM” value was 1.17 and the “k IAM” value was 14.96. Further, the “RP (Rf, BSA-impregnated RP plate)” value in data set [7] worked out at 0.47.
As to `OCCOCCN1CCN(C2=Nc3ccccc3Sc3ccccc32)CC1` [quetiapine], in data set [1], the “CNS+/-” value is on record as 1. Further, in data set [2], the “CNP (Rf, control NP plate)” value is 0.68. For the same compound, the PB in the data set on plasma protein (setting [9]) is 0.83. In addition, in [3], the “NP (Rf, BSA-impregnated NP plate)” value is listed as 0.68. For the same compound, the “k HSA” value in data set [4] (setting [10]) came out at 2.48. Further, in [4] (setting [12]), the “log k HSA” value is 0.39. The “CRP (Rf, control RP plate)” value in data set [5] was 0.73. Further, in data set [6], the “log k IAM” value worked out at 1.23 and the “k IAM” value is 17.02. The “RP (Rf, BSA-impregnated RP plate)” value in data set [7] turned out to be 0.69.
Consider `Cc1nc2n(c(=O)c1CCN1CCC(c3noc4cc(F)ccc34)CC1)CCCC2` [risperidone], for which the “k HSA” value in [4] (pH 7.4) is 2.11. For the same compound, the chromatographic logD in data set [8] amounted to 0.32. In addition, in data set [6], the “log k IAM” value was found to be 0.68 and the “k IAM” value came to 4.83.
With `CCCc1nc2c(C)cc(-c3nc4ccccc4n3C)cc2n1Cc1ccc(-c2ccccc2C(=O)O)cc1` [telmisartan], the “CNS+/-” value in [1] is on record as 1. Moreover, in data set [2], the “CNP (Rf, control NP plate)” value worked out at 0.90. For the same compound, the PB with plasma protein (setting [9]) is 0.995. Moreover, in [3], the “NP (Rf, BSA-impregnated NP plate)” value is on record as 0.90. Further, the “CRP (Rf, control RP plate)” value in data set [5] was found to be 0.87. For the same compound, in data set [6], the “log k IAM” value is 0.67 and the “k IAM” value worked out at 4.68. For the same compound, the “RP (Rf, BSA-impregnated RP plate)” value in [7] amounted to 0.85.
As to `CCS(=O)(=O)CCn1c([N+](=O)[O-])cnc1C` [tinidazole], in [2] (Table S8, external group), the “CNP (Rf value from the non-impregnated NP plate, control)” value was 0.89. The PB with plasma protein (setting [11]) is 0.12. For the same compound, the “NP (Rf value from the NP plate impregnated with 2 mg/mL BSA solution)” value in data set [3] (Table S8, external group) was 0.88. This compound also registered a kHSA in [4] (Table S9, external group) of 0.12. This compound also registered a chromatographic logD in data set [8] of -0.92. In addition, in data set [6], the kIAM was found to be 2.00 and the “log kIAM” value came to 0.30.
For the compound `Cc1ccc(O)c([C@H](CCN(C(C)C)C(C)C)c2ccccc2)c1` [tolterodine], the “k HSA” value in data set [4] (pH 7.4) was determined as 2.9. For the same compound, the chromatographic logD in data set [8] is 0.46. In addition, in data set [6], the “log k IAM” value is on record as -0.68 and the “k IAM” value came out at 0.21.
Consider `CCN(Cc1ccncc1)C(=O)C(CO)c1ccccc1` (stereo not drawn) [tropicamid], for which the “CNS+/-” value in [1] is 1. In addition, in data set [2], the “CNP (Rf, control NP plate)” value is 0.85. Further, in the data set on plasma protein (setting [9]), the PB was 0.45. Besides, in [3], the “NP (Rf, BSA-impregnated NP plate)” value was 0.86. The “log k HSA” value in data set [4] (Table S5, HSA, pH 7.4) is given as -0.82. The “k HSA” value in data set [4] (setting [10]) was determined as 0.15. Also, the “CRP (Rf, control RP plate)” value in [5] is 0.83. Moreover, in [6], the “log k IAM” value was 0.03 and the “k IAM” value was found to be 1.06. The “RP (Rf, BSA-impregnated RP plate)” value in [7] was 0.83.
As for `COc1ccc(C(CN(C)C)C2(O)CCCCC2)cc1` (stereo not drawn) [venlafaxine], in the data set on plasma protein (setting [9]), the PB is recorded as 0.27. The “k HSA” value in data set [4] (pH 7.4) is 1.05. The compound further showed a chromatographic logD in data set [8] of 0.02. Further, in data set [6], the “log k IAM” value amounted to 0.92 and the “k IAM” value is recorded as 8.25.

The values above are taken from article PMC9182007, “Statistical Methods in the Study of Protein Binding and Its Relationship to Drug Bioavailability in Breast Milk” (Molecules, 2022).
